Results on 11 compounds are retold here after patent US9938264B2, “Proteolysis targeting chimera compounds and methods of preparing and using same” (YALE UNIVERSITY, priority 2015, dated 2018).

Where two headings read alike, the source gives them in different places.

Experiment [1] concerns the target T1, phosphorylated c-ABL kinase domain (Homo sapiens, UniProt P00519).
T1 construct: phosphorylated and non-phosphorylated c-ABL kinase domain; purchased DiscoverRx Corporation (KinomeScan platform)
T1 sequence (P00519 242-493 limits assumed): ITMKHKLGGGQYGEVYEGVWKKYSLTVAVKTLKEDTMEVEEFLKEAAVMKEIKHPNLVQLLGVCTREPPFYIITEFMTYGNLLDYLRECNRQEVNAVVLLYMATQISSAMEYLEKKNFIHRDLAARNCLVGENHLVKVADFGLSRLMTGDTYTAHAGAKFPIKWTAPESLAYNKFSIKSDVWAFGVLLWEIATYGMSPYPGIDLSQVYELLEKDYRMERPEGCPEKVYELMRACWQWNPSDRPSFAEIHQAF
Description: KinomeScan in vitro binding affinity (Kd), phosphorylated c-ABL kinase domain. The protocol: (§1) PROTAC in vitro binding affinities (Kd) to phosphorylated and non-phosphorylated c-ABL kinase domain were determined using the KinomeScan platform (DiscoverRx Corporation). The compounds were solubilized in DMSO and sent to DiscoverRx Corporation as a 10 μM stock solution.

The target of experiment [2] is T2, non-phosphorylated c-ABL kinase domain (Homo sapiens, UniProt P00519).
T2 construct: phosphorylated and non-phosphorylated c-ABL kinase domain; purchased DiscoverRx Corporation (KinomeScan platform)
T2 sequence (P00519 242-493 limits assumed): T1 sequence (P00519 242-493 limits assumed)
The experiment is described as follows: KinomeScan in vitro binding affinity (Kd), non-phosphorylated c-ABL kinase domain. The protocol: as §1

[3] abbreviates: Table 2, read-out: ABL (phosphorylated).
[4] abbreviates: Table 2, read-out: ABL (non-phosphorylated).
Setting [5] is: Table 1, ABL kinase domain, read-out: ABL (phosphorylated) affinity.
The mark [6] stands for this setting: Table 1, ABL kinase domain, read-out: ABL (non-phosphorylated) affinity.

As for `COc1cc(Nc2c(C#N)cnc3cc(OCCCN4CCN(CCCCCCOCCOCCOCCCCCC(=O)Nc5cccc6c5C(=O)N(C5CCC(=O)NC5=O)C6=O)CC4)c(OC)cc23)c(Cl)cc1Cl` (stereo not shown) [BOS-6-2-2-6-CRBN, 6-(2-(2-((6-(4-(3-((3-cyano-4-((2,4-dichloro-5-methoxyphenyl)amino)-6-methoxyquinolin-7-yl)oxy)propyl)piperazin-1-yl)hexyl)oxy)ethoxy)ethoxy)-N-(2-(2,6-dioxopiperidin-3-yl)-1,3-dioxoisoindolin-4-yl)hexanamide], the values for the Kd in experiment [1] (setting [3]) and in experiment [2] (setting [4]) were 0.55 nM and 0.91 nM, respectively.

For `COc1cc(Nc2c(C#N)cnc3cc(OCCCN4CCN(CCCCCCOCCOCCOCCCCCC(=O)N[C@H](C(=O)N5C[C@H](O)C[C@H]5C(=O)NCc5ccc(-c6scnc6C)cc5)C(C)(C)C)CC4)c(OC)cc23)c(Cl)cc1Cl` [BOS-6-2-2-6-VHL, (2S,4R)-1-((S)-2-(tert-butyl)-22-(4-(3-((3-cyano-4-((2,4-dichloro-5-methoxyphenyl)amino)-6-methoxyquinolin-7-yl)oxy)propyl)piperazin-1-yl)-4-oxo-10,13,16-trioxa-3-azadocosanoyl)-4-hydroxy-N-(4-(4-methylthiazol-5-yl)benzyl)pyrrolidine-2-carboxamide], the Kd in experiment [1] (setting [5]) is 0.63 nM; in experiment [2] (setting [6]), 1.4 nM.

Turning to `COc1cc(Nc2c(C#N)cnc3cc(OCCCN4CCN(CCCCCCOCCCCCOCCCCCC(=O)Nc5cccc6c5C(=O)N(C5CCC(=O)NC5=O)C6=O)CC4)c(OC)cc23)c(Cl)cc1Cl` (stereo not shown) [BOS-6-5-6-CRBN, 6-((5-((6-(4-(3-((3-cyano-4-((2,4-dichloro-5-methoxyphenyl)amino)-6-methoxyquinolin-7-yl)oxy)propyl)piperazin-1-yl)hexyl)oxy)pentyl)oxy)-N-(2-(2,6-dioxopiperidin-3-yl)-1,3-dioxoisoindolin-4-yl)hexanamide], the Kd in experiment [1] (setting [3]) worked out at 1.1 nM; in experiment [2] (setting [4]), 2.8 nM.

On to `COc1cc(Nc2c(C#N)cnc3cc(OCCCN4CCN(CCCCCCOCCCCCOCCCCCC(=O)N[C@H](C(=O)N5C[C@H](O)C[C@H]5C(=O)NCc5ccc(-c6scnc6C)cc5)C(C)(C)C)CC4)c(OC)cc23)c(Cl)cc1Cl` [BOS-6-5-6-VHL, (2S,4R)-1-((S)-2-(6-((5-((6-(4-(3-((3-cyano-4-((2,4-dichloro-5-methoxyphenyl)amino)-6-methoxyquinolin-7-yl)oxy)propyl)piperazin-1-yl)hexyl)oxy)pentyl)oxy)hexanamido)-3,3-dimethylbutanoyl)-4-hydroxy-N-(4-(4-methylthiazol-5-yl)benzyl)pyrrolidine-2-carboxamide], for which the Kd in experiment [1] (setting [3]) was determined as 1.5 nM; in experiment [2] (setting [4]), 4.6 nM.

`Cc1nc(Nc2ncc(C(=O)Nc3c(C)cccc3Cl)s2)cc(N2CCN(CCCCCCOCCOCC(=O)Nc3cccc4c3C(=O)N(C3CCC(=O)NC3=O)C4=O)CC2)n1` (stereo not shown) [DAS-6-2-2-CRBN, N-(2-chloro-6-methylphenyl)-2-((6-(4-(6-(2-(2-((2-(2,6-dioxopiperidin-3-yl)-1,3-dioxoisoindolin-4-yl)amino)-2-oxoethoxy)ethoxy)hexyl)piperazin-1-yl)-2-methylpyrimidin-4-yl)amino)thiazole-5-carboxamide]: the Kd in experiment [1] (setting [3]) is 0.19 nM; in experiment [2] (setting [4]), 0.28 nM.

Consider `Cc1nc(Nc2ncc(C(=O)Nc3c(C)cccc3Cl)s2)cc(N2CCN(CCCCCCOCCCCCOCCCCCC(=O)Nc3cccc4c3C(=O)N(C3CCC(=O)NC3=O)C4=O)CC2)n1` (stereo not shown) [DAS-6-5-6-CRBN, N-(2-chloro-6-methylphenyl)-2-((6-(4-(6-((5-((6-((2-(2,6-dioxopiperidin-3-yl)-1,3-dioxoisoindolin-4-yl)amino)-6-oxohexyl)oxy)pentyl)oxy)hexyl)piperazin-1-yl)-2-methylpyrimidin-4-yl)amino)thiazole-5-carboxamide], for which the Kd in experiment [1] (setting [3]) is 1.4 nM; in experiment [2] (setting [4]) it was 1.3 nM.

For `Cc1ccc(NC(=O)c2ccc(CN3CCN(CCCCCCOCCOCCOCCCCCC(=O)Nc4cccc5c4C(=O)N(C4CCC(=O)NC4=O)C5=O)CC3)cc2)cc1Nc1nccc(-c2cccnc2)n1` (stereo not shown) [IMA-6-2-2-6-CRBN, 4-((4-(6-(2-(2-((6-((2-(2,6-dioxopiperidin-3-yl)-1,3-dioxoisoindolin-4-yl)amino)-6-oxohexyl)oxy)ethoxy)ethoxy)hexyl)piperazin-1-yl)methyl)-N-(4-methyl-3-((4-(pyridin-3-yl)pyrimidin-2-yl)amino)phenyl)benzamide], the Kd in experiment [1] (setting [5]) was determined as 110 nM; in experiment [2] (setting [6]), 6.2 nM.

In the case of `Cc1ccc(NC(=O)c2ccc(CN3CCN(CCCCCCOCCOCCOCCCCCC(=O)N[C@H](C(=O)N4C[C@H](O)C[C@H]4C(=O)NCc4ccc(-c5scnc5C)cc4)C(C)(C)C)CC3)cc2)cc1Nc1nccc(-c2cccnc2)n1` [IMA-6-2-2-6-VHL, (2S,4R)-1-((S)-2-(tert-butyl)-22-(4-(4-((4-methyl-3-((4-(pyridin-3-yl)pyrimidin-2-yl)amino)phenyl)carbamoyl)benzyl)piperazin-1-yl)-4-oxo-10,13,16-trioxa-3-azadocosanoyl)-4-hydroxy-N-(4-(4-methylthiazol-5-yl)benzyl)pyrrolidine-2-carboxamide], the Kd was found to be 93 nM in experiment [1] (setting [5]) and 4.3 nM in experiment [2] (setting [6]).

Consider `Cc1ccc(NC(=O)c2ccc(CN3CCN(CCCCCCOCCOCC(=O)Nc4cccc5c4C(=O)N(C4CCC(=O)NC4=O)C5=O)CC3)cc2)cc1Nc1nccc(-c2cccnc2)n1` (stereo not shown) [IMA-6-2-2-CRBN, 4-((4-(6-(2-(2-((2-(2,6-dioxopiperidin-3-yl)-1,3-dioxoisoindolin-4-yl)amino)-2-oxoethoxy)ethoxy)hexyl)piperazin-1-yl)methyl)-N-(4-methyl-3-((4-(pyridin-3-yl)pyrimidin-2-yl)amino)phenyl)benzamide], for which the Kd in experiment [1] (setting [3]) turned out to be 72 nM; in experiment [2] (setting [4]), 4.7 nM.

Consider `Cc1ccc(NC(=O)c2ccc(CN3CCN(CCCCCCOCCOCC(=O)N[C@H](C(=O)N4C[C@H](O)C[C@H]4C(=O)NCc4ccc(-c5scnc5C)cc4)C(C)(C)C)CC3)cc2)cc1Nc1nccc(-c2cccnc2)n1` [IMA-6-2-2-VHL, (2S,4R)-1-((S)-3,3-dimethyl-2-(2-(2-((6-(4-(4-((4-methyl-3-((4-(pyridin-3-yl)pyrimidin-2-yl)amino)phenyl)carbamoyl)benzyl)piperazin-1-yl)hexyl)oxy)ethoxy)acetamido)butanoyl)-4-hydroxy-N-(4-(4-methylthiazol-5-yl)benzyl)pyrrolidine-2-carboxamide], for which the Kd in experiment [1] (setting [3]) was 98 nM; in experiment [2] (setting [4]), 5.8 nM.

In the case of `Cc1ccc(NC(=O)c2ccc(CN3CCN(CCCCCCOCCCCCOCCCCCC(=O)Nc4cccc5c4C(=O)N(C4CCC(=O)NC4=O)C5=O)CC3)cc2)cc1Nc1nccc(-c2cccnc2)n1` (stereo not shown) [IMA-6-5-6-CRBN, 4-((4-(6-((5-((6-((2-(2,6-dioxopiperidin-3-yl)-1,3-dioxoisoindolin-4-yl)amino)-6-oxohexyl)oxy)pentyl)oxy)hexyl)piperazin-1-yl)methyl)-N-(4-methyl-3-((4-(pyridin-3-yl)pyrimidin-2-yl)amino)phenyl)benzamide], the Kd in experiment [1] (setting [3]) is 360 nM; in experiment [2] (setting [4]), 24 nM.
